Measured values taken from patent publication US20060258576A1, “Gdnf-related neuropeptides” (Licentia, Ltd, priority 2003, published 2006).
Entries after “also recorded” stand apart in the source; their conditions may differ. No end group written: not given here.

What was measured:
[1] = system: synaptic transmission; details: Qian et al (1997); cited from earlier work
[2] = system: hippocampus area CA1; assay: Extracellular recordings (pEPSPs, population spikes) in acute rat hippocampal brain slice preparation; type: cell-based; details: for pEPSPs, fraction of control (FIG. 4D) / pSpikes, fraction of control (FIG. 4C): 10 nM SEQ ID NO:11, 20 nM SEQ ID NO:9 and SEQ ID NO:15, 250 μM NEM, adult rat hippocampus; for excitatory synaptic input into primary cells in the rat CA1: acute rat hippocampal brain slice; for reversal of effects upon removal of peptide from the superfusate: washout
[3] = system: adult rat brain; assay: Binding of I125-labeled peptides to adult rat brain slices (autoradiography)
Description: (§1) The binding of I^125-labeled peptides to embryonic and adult rodent tissues was studied in vitro. Chemically synthesized peptides containing an extra N-terminal tyrosine (Sigma-Genosys, Cambridge, UK) were labeled with lactoperoxidase (Trupp et al. (1995) J. Cell Biol. 130(1): 137-148). Specific activities obtained for each were 0.5-2.5×10^14 cpm/mmol, except for SEQ ID NO:9 10^13 cpm/mmol. From both E17 Wistar rat and E15 mouse embryos, kidneys, gut, pancreas and spinal cord were dissected. In addition, testes, ovaries, brain and adrenal glands of the embryonic mice were taken. The binding was performed and paraffin sections of embryonic tissues were processed as described (Partanen et al. (1987) Dev Biol 120(1): 186-197). Freshly cut adult rat brain slices of 1 mm were cut and incubated in 0.5-1 nmol/ml of ^125I-peptides, washed and processed for paraffin sections. Kodak (Rochester, N.Y.) NTB-2 emulsion was used for autoradiography and the samples were exposed from 3 to 12 weeks at +4° C. The sections were developed with Kodak D19 and stained with hematoxylin.
For immunohistochemical staining of tissues, paraffin sections were mounted with Immumount (Shandon, Pittsburgh, Pa.). Sections were stained with an anti-class III β-tubulin antibody (Tuj1; Covance Inc., Princeton, N.J.), which recognizes selectively neuronal cells. […]

[4] = system: embryonic mouse tissues; assay: Binding of I125-labeled peptides to embryonic mouse tissues (autoradiography, Tuj1 staining)
Description: as §1
For immunohistochemical staining of tissues, paraffin sections were mounted with Immumount (Shandon, Pittsburgh, Pa.). Sections were stained with an anti-class III β-tubulin antibody (Tuj1; Covance Inc., Princeton, N.J.), which recognizes selectively neuronal cells. Staining was performed with Vectastain kit (Vector Laboratories, Burlingame, Calif.) according to manufacturer's instructions, except that the primary antibody (1:300) was incubated in +4° C. o/n.

[5] = system: ureteric branching; details: Sainio et al. (1997); cited from earlier work
[6] = system: primary neurons; details: U. Arumäe, personal communication; cited from earlier work
[7] = 10 nM peptide in the presence of 250 μM NEM
[8] = superfusion with 10-50 nM, 0.05 Hz stimulation of Schaffer collateral fibres, CA1, slices from P28-P35 rats

Molecule: PYY3-36: peptide YY fragment, literature comparison
- levels necessary for inhibition of synaptic transmission [1]: 1 µM

Molecule: CCN1C(=O)C=CC1=O [NEM, N-ethylmaleimide, reference compound]
- pEPSPs, fraction of control (FIG. 4D) [2]: increases
- pSpikes, fraction of control (FIG. 4C) [2]: increases
- stimulus-evoked responses ([2]; NEM by bath perfusion, every slice recorded): increased

Molecule: LLEAPAEDHSL(a) (LLEAPAEDHSL-NH2; not fully specified) [SEQ ID NO:11, GDNF precursor-derived neuropeptide; mouse, rat]
- specific binding ([3]; I125-labeled peptide with extra N-terminal tyrosine, 0.5-1 nmol/ml): specific binding
- binding to adult rat brain slices (FIG. 3 A-D) ([3]; I125-labeled peptide, sections containing the hippocampal area): extensive binding exclusively in adult rat brain; also recorded: intensive binding
- pEPSPs, fraction of control (FIG. 4D) [2]: substantially increases
- pSpikes, fraction of control (FIG. 4C) [2]: substantially increases
- pEPSPs when peptide is added to NEM [2, 7]: no further increase
- pSpikes when peptide is added to NEM [2, 7]: no further increase
- increase in presynaptic volley with or without NEM (FIG. 4 A, B) ([2]; 10 nM peptide, absence or presence of 250 μM NEM): seen only in the absence of NEM
- average increase in the presynaptic fiber volley ([2]; CA1, rat hippocampal slices): 34%
- excitatory synaptic input into primary cells in the rat CA1 [2]: modulate
- effect on excitability in the presence of a Gi/o-blocking agent ([2]; in the presence of NEM (FIG. 4 B, C, D)): no effect
- effective concentrations on pEPSP and pSpike (FIG. 6) ([2]; increasing concentrations): nanomolar
- increase of pEPSPs [2, 8]: 30-40%
- increase of population spikes (pSPs) [2, 8]: 30-40%
- reversal of effects upon removal of peptide from the superfusate [2]: fully or almost fully reversed

Molecule: FPLPA(a) (FPLPA-NH2; not fully specified) [SEQ ID NO:9, GDNF precursor-derived neuropeptide; human, mouse, rat]
- specific binding ([4]; I125-labeled peptide with extra N-terminal tyrosine): specific binding
- tissue distribution of binding ([4]; I125-labeled peptide, E15 mouse embryo tissues): restricted to embryonic mouse tissues outside the CNS; also recorded: bound to embryonic (E15) mouse tissues
- binding in testis ([4]; embryonic mouse testis (FIG. 3 I, J)): binding to the interstitium
- distribution of binding versus neuronal β-tubulin (Tuj1) staining ([4]; gut and metanephric kidney capsule (FIG. 3 E-H)): closely overlapped
- presynaptic fiber volley (in words) ([2]; CA1, rat hippocampal slices): significant decrease
- change of pSPs ([2]; CA1, rat hippocampal slices, concentration not given): −24%
- excitatory synaptic input into primary cells in the rat CA1 [2]: modulate
- reversal of effects upon removal of peptide from the superfusate [2]: fully or almost fully reversed

Molecule: neuropeptide Y [NPY]
- levels necessary for inhibition of synaptic transmission [1]: 1 µM

B1: glial cell line-derived neurotrophic factor (protein, UniProt P39905 78-211, looked up)
Glial cell line-derived …: SPDKQMAVLPRRERNRQAAAANPENSRGKGRRGQRGKNRGCVLTAIHLNVTDLGLGYETKEELIFRYCSGSCDAAETTYDKILKNLSRNRRLVSDKVGQACCRPIAFDDDLSFLDDNLVYHILRKHSAKRCGCI
notes: neurotrophic factor, literature comparison
- concentrations required for promotion of ureteric branching [5]: nanomolar
- concentrations required for maintenance of primary neurons [6]: nanomolar
